Data as given in patent US20240350495A1, “[6R]-MTHF IN B6 ENHANCED 5-FU BASED CHEMOTHERAPY OF CARCINOMA” (Isofol Medical AB, priority 2023, published 2024).
Entries after “also recorded” stand apart in the source; their conditions may differ.

Key:
[1] = kidneys; cited from earlier work
[2] = [6R]-MTHF levels after arfolitixorin versus comparable leucovorin treatment; format: in vivo
Text: This dependency on cellular activation provides a hurdle for reaching sufficient levels of the active [6R]-MTHF. […] Secondly, the enzymatic activation is genetically regulated^16,18, and is therefore associated with variability between individuals and conditions. Arfolitoxirin is believed to be efficacious in a larger proportion of patients with less inter- and intra-individual variability. These differences may potentially turn out to be of significant importance for increased clinical efficacy in 5-FU based cancer treatment.

solid tumors = experiment: Phase I/IIa study ISO-CC-005 of arfolitixorin with 5-FU; format: in vivo, human; conditions: between 8 and 16 weeks after initiating treatment
Experimental: Arfolitixorin has been in development for a number of years and has been studied in several clinical studies.
The completion of the study was announced in January 2020. In total, 105 patients were included in the study. […] These patients had been treated with the “doublet” regimens comprising 120 mg/m^2 arfolitixorin and 5-fluorouracil (5-FU) with either irinotecan or oxaliplatin (ARFIRI/ARFOX). Out of the 31 patients, 17 were treated with an ARFOX regimen.

[3] = Stability of the drug substance salt; format: physicochemical; conditions: compared with very unstable [6R]-5,10-MTHF
Text: Arfolitixorin (former Modufolin®) is a folate-based biomodulator developed by applicant to improve the outcome of a range of antimetabolite treatments used within oncology. One of the therapeutic areas of specific interest included in the development program of arfolitixorin is as biomodulator of 5-fluorouracil (5-FU) activity in standard treatment regime for advanced, metastatic CRC, such as Stage IV. A stable lyophilizate formulation of the naturally occurring diastereoisomeric folate [6R]-5,10-MTHF has successfully been made from the drug substance arfolitixorin hemisulfate. […] As mentioned in the background section of the present application, [6R]-5,10-methylenetetrahydrofolate, abbreviated herein as [6R]-5,10-MTHF, needs to be metabolically formed when using the widely used folate-based drugs leucovorin and levoleucovorin.

[4] = cited from earlier work
[5] = air, sunlight; cited from earlier work
[6] = in vitro; cited from earlier work
[7] = tested on: human colon carcinoma HCT116 cell line; conditions: supplemented with high concentrations of PLP and leucovorin; cited from earlier work
[8] = tested on: human colon carcinoma HT29 cell line; conditions: supplemented with high concentrations of PLP and leucovorin; cited from earlier work
[9] = tested on: murine leukemia L1210 cell line; conditions: supplemented with high concentrations of PLP and leucovorin; cited from earlier work

For `Nc1nc2c(c(=O)[nH]1)N(C=O)[C@H](CNc1ccc(C(=O)N[C@@H](CCC(=O)O)C(=O)O)cc1)CN2` [d-LV], the excretion [1] is given as “slowly excreted by the kidneys”.

With `Nc1nc2c(c(=O)[nH]1)N1CN(c3ccc(C(=O)N[C@@H](CCC(=O)O)C(=O)O)cc3)C[C@H]1CN2` [Arfolitixorin, [6R]-5,10-methylenetetrahydrofolate] the “[6R]-MTHF levels relative to comparable treatment with leucovorin” value [2] was 3-4 times and the “progression of solid tumors” value (solid tumors) was “No statistically significant progression”.

In the case of `Nc1nc2c(c(=O)[nH]1)N1CN(c3ccc(C(=O)N[C@@H](CCC(=O)O)C(=O)O)cc3)C[C@H]1CN2.Nc1nc2c(c(=O)[nH]1)N1CN(c3ccc(C(=O)N[C@@H](CCC(=O)O)C(=O)O)cc3)C[C@H]1CN2.O=S(=O)(O)O` [arfolitixorin hemisulfate], the “stability of the salt” value [3] is reported as “unexpectedly stable salt”.

For `Cc1ncc(CO)c(CO)c1O.Cl` [Pyridoxine hydrochloride], the solubility in water [4] is given as “One gram dissolves in 5 ml of water” and the stability [5] is given as “stable in air and is slowly affected by sunlight”.

For `Nc1nc(=O)c2c([nH]1)NC[C@H](CNc1ccc(C(=O)N[C@@H](CCC(=O)O)C(=O)O)cc1)N2C=O` [l-LV], the conversion to methyl-tetrahydrofolate [6] is listed as “rapidly converted to the biologically available methyl-tetrahydrofolate form”.

In the case of `O=c1[nH]cc(F)c(=O)[nH]1` [5-FU, 5-fluorouracil], the “cytotoxic activity of 5-FU” value [7] is listed as “potentiated; also recorded: strongly potentiated”, the “cytotoxic activity of 5-FU” value [8] is listed as “potentiated; also recorded: strongly potentiated” and the “cytotoxic activity of 5-FU” value [9] is listed as “potentiated; also recorded: strongly potentiated”.
